# According to patent US5596018A, “Antiviral agents against aids-causing virus” (priority 1988, dated 1997):
# How the values were obtained:
# HIV-1 [1] = assay: Anti-HIV-1 assay in MT-4 cells, inhibition of viral cytopathogenicity; type: cell-based; settings: for EC50: Human immunodeficiency virus 1, MT4, HIV-1, cytopathogenic effect, read-out: ED50 a: Antiviral 50% effective dose; for EC50 / SI: Selective index: MT-4 cells
# in vitro = settings: human
# Description: Anti-HIV assays of fuchsinic acid were carried out in cultures of MT-4 and HUT-78 cells infected with AIDS-causing viruses such as HIV type 1 (HIV-1) and HIV type 2 (HIV-2), taking cytopathogenicity as a parameter of the inhibitory effect on replication of the viruses. The anti-HIV activity was also measured by monitoring the expression of viral antigen.
# HIV-1 [2] = assay: Anti-HIV-1 assay in HUT-78 cells, expression of viral antigen; type: cell-based; settings: for SI: Selective index / EC50: HUT-78 cells; for EC50: Human immunodeficiency virus 1, HuT78, HIV-1 antigen expression, read-out: ED50 a: Antiviral 50% effective dose
# HIV-2 = assay: Anti-HIV-2 assay in MT-4 cells, inhibition of viral cytopathogenicity; type: cell-based; settings: Human immunodeficiency virus 2, MT4; HIV-2, MT-4 cells, cytopathogenic effect; read-out: 50% effective dose (ED50) for HIV-2
Compound,EC50 (HIV-1 [1]),SI: Selective index (HIV-1 [1]),CC50 (in vitro; hut-78 cells),CC50 (in vitro; mt-4 cells),SI: Selective index (HIV-1 [2]),EC50 (HIV-1 [2]),"Inhibition of cytopathogenic effect (CPE) (HIV-1 [1]; HIV-1, MT-4 cells, at 125 μM (FIG. 1-A))",EC50 (HIV-2),Inhibition of HIV-1 antigen (HIV-1 [2]; at 25 μM)
"O=C(O)C1=CC(=C(c2ccc(O)c(C(=O)O)c2)c2ccc(O)c(C(=O)O)c2)C=CC1=O [ATA, Aurintricarboxylic acid]",5 µM,118,13 µM,590 µM,19,0.69 µM,,,
O=C1C=CC(=C(c2ccc(O)cc2)c2ccc(O)cc2)C=C1 [Aurin],> 2.6 µM,< 1,2.3 µM,2.6 µM,< 1,> 2.3 µM,,,
Cc1cc(C(=C2C=CC(=N)C(S(=O)(=O)O)=C2)c2ccc(N)c(S(=O)(=O)O)c2)cc(S(=O)(=O)O)c1N [Fuchsinic acid],42 µM,< 74,> 625 µM,> 3120 µM,< 39,16 µM,complete inhibition,63 µM,inhibited
Cc1ccc(C(=O)Nc2ccc(S(=O)(=O)O)c3cc(S(=O)(=O)O)cc(S(=O)(=O)O)c23)cc1NC(=O)c1cccc(NC(=O)Nc2cccc(C(=O)Nc3cc(C(=O)Nc4ccc(S(=O)(=O)O)c5cc(S(=O)(=O)O)cc(S(=O)(=O)O)c45)ccc3C)c2)c1 [Suramin],32 µM,20,55 µM,625 µM,3.1,18 µM,,,
